Assay results as given in BindingDB's records for doi:10.1021/acs.jmedchem.5b01913 (Dalian University of Technology, 2016).

How the values were obtained:
[1] = Inhibition of Bcl2 in human DMS53 cells assessed as growth inhibition
[2] = Inhibition of MDM2 in human HCT116 p53+/+ cells assessed as growth inhibition

## CC(C)Oc1ccc(C(=O)Nc2c(C(=O)O)nn(-c3ccc(Oc4ccccc4)cc3)c2-c2ccc(OC(C)C)cc2)cc1
[1]
  IC50: 5 µM
[2]
  IC50: 5 µM
